In the assay the test system is infectious H77S (GT 1a virus). As to the kind of experiment: HCV infectious virus EC50 determination (HCV RNA by quantitative RT-PCR in infected Rof-0c cells). Particulars: Hepatitis C virus, GT1A, 72 h, 96-well plate, virus stock grown in human serum, three days post-infection, read-out: potency against infectious H77S (EC50, 50% reduction in HCV RNA). The assay is classed as cell-based, Hepatitis C virus genotype 1a. As for the experimental part: FIG. 6. Potency of an NS5B inhibitor and HCV entry inhibitor against the GT 1a infectious virus. Rof-0c cells were infected with either H77S or the chimera H77S RO-51-5B. At the time of infection, the cells were treated with a serial dilution of either the NS5B inhibitor HCV-796 or the HCV entry inhibitor JS81. After three days, the intracellular RNA was purified and used to determine the amount of HCV RNA.
The presence of HCV RNA was examined after purification of total cellular RNA using the PerfectPure RNA 96 Cell Kit (5 Prime) according to the manufacturer's instructions. To quantitate the amount of HCV RNA, cDNA was amplified using either the Taqman Universal PCR mix (Applied Biosystems) or the TaqMan EZ RT-PCR kit (Applied Biosystems) with a set of primers and probe complementary to a region within the 5′ untranslated region (UTR). The primer and probe sequences are: (HCV 20F) […] (SEQ ID NO:4); (HCV 114R) […] (SEQ ID NO:5); (HCV P43) FAM-[…]-TAMRA (SEQ ID NO:6).
The sensitivity of infectious HCV to antivirals was determined using the genotype 1a strains H77S or H77S RO-51-5B. […] Three days post-infection, the HCV RNA was quantified as described above. […]
Potency of HCV inhibitors against GT1a virus. […] The HCV stocks were analyzed to determine if they would be sufficient to measure the potency of HCV inhibitors. […]

In general, EC50 refers to the midpoint of the concentration-response curve.

Structures are written as SMILES.

Regarding `CNC(=O)c1c(-c2ccc(F)cc2)oc2cc(N(CCO)S(C)(=O)=O)c(C3CC3)cc12` [HCV-796], the EC50 turned out to be 32 ± 4 nM.
